Reference: patent US20090196930A1, “AEROSOLIZED NITRITE AND NITRIC OXIDE -DONATING COMPOUNDS AND USES THEREOF” (Aires Pharmaceuticals, Inc., priority 2007, published 2009)
Read-outs that look alike come from different tables or passages of the source.

Conditions: for VMD: n = 6, mean ± sd
Experimental: It was evaluated in tidal breathing mode (TBM) only.
The output characteristics of the three nebulizers (one of each type) were measured to determine the particle size distribution, inspired dose, residual dose, nebulizer output and duration of nebulization. The nebulizer efficiency, defined as the inhaled fine particle dose as a percent of the total loaded dose, was also determined. Each nebulizer was studied in duplicate, for a total of 6 measures per device type.
Particle Sizing. Nebulizers were weighed dry, full, and at the end of each study to determine gravimetric output and residual volume. Nebulizers were connected to the inhalation cell of the Insitec Laser (Malvern Instruments Ltd, Malvern, Worcestershire, UK) using a flexible airtight connector. The nebulizer and inhalation cell were oriented in a horizontal position. The output end of the inhalation cell was connected to a vacuum generator providing a continuous flow of 20 LPM across the laser beam. For measurements made with the I-neb, the output end of the inhalation cell was connected to a breath simulator, which permitted cyclic particle size measurements using the following breathing pattern: Rate=15 bpm, Volume=500 mL, I.T=2.0 seconds. This is the breathing pattern used for the output studies as well.
Each study was timed from the beginning of nebulization and run for a total of 2 minutes. During the first minute, no measurements were made to allow for equilibration of the solution. Particle sizing was begun and analyzed continuously for the duration of the 2nd minute. All data points were averaged for each measure.
1. VMD: Volume Median Diameter
2. GSD: Geometric Standard Deviation
3. %<3p: The percent of particles <3 microns
4. %<5p: The percent of particles <5 microns
5. Duration: Two minute total cycle time

O=NO [sodium nitrite]
GSD (Aeroneb Go): 2.1 ± 0.1 | VMD (Aeroneb Go): 4.6 ± 0.1 | GSD (I-neb): 1.8 ± 0.1 | VMD (I-neb): 4.8 ± 0.5 | GSD (PARI STAR): 2.8 ± 0.1 | VMD (PARI STAR): 1.7 ± 0.1
